Experimental data: ChEMBL document CHEMBL1148958, “Antibacterial activity of naphthoquinones and triterpenoids from Euclea natalensis root bark” (J Nat Prod, 2004)
Active and inactive are the calls of the source. The calls are words filed in the database; no cut-off is given here.

Columns and labels:
Format in all cases: functional, organism-based
[1] = tested on: Bacillus pumilus; experiment: Antibacterial activity against Bacillus pumilus ATCC 27142 at 0.1 mg/ml by agar plate method
[2] = tested on: Staphylococcus aureus; experiment: Antibacterial activity against Staphylococcus aureus ATCC 25923 at 0.1 mg/ml by agar plate method
[3] = tested on: Enterococcus faecalis; experiment: Antibacterial activity against Streptococcus faecalis at 0.1 mg/ml by agar plate method
[4] = tested on: Mycobacterium tuberculosis; experiment: Antimycobacterial activity against Mycobacterium tuberculosis H37Rv at 0.1 mg/ml by rapid radiometric method
[5] = tested on: Bacillus subtilis; experiment: Antibacterial activity against Bacillus subtilis ATCC 6633 at 0.1 mg/ml by agar plate method
[6] = tested on: Mycobacterium tuberculosis; experiment: Antimycobacterial activity against Mycobacterium tuberculosis H37Rv at 0.006 mg/ml by rapid radiometric method
[7] = tested on: Pantoea agglomerans; experiment: Antibacterial activity against Pantoea agglomerans ATCC 27155 at 0.01 mg/ml by agar plate method
[8] = tested on: Staphylococcus aureus; experiment: Antibacterial activity against Staphylococcus aureus ATCC 25923 at 0.01 mg/ml by agar plate method
[9] = tested on: Bacillus cereus; experiment: Antibacterial activity against Bacillus cereus at 0.01 mg/ml by agar plate method
[10] = tested on: Escherichia coli; experiment: Antibacterial activity against Escherichia coli ATCC 25922 at 0.01 mg/ml by agar plate method
[11] = tested on: Bacillus subtilis; experiment: Antibacterial activity against Bacillus subtilis ATCC 6633 at 0.01 mg/ml by agar plate method
[12] = tested on: Bacillus pumilus; experiment: Antibacterial activity against Bacillus pumilus ATCC 27142 at 0.01 mg/ml by agar plate method
[13] = tested on: Serratia marcescens; experiment: Antibacterial activity against Serratia marcescens ATCC 13880 at 0.1 mg/ml by agar plate method
[14] = tested on: Pseudomonas aeruginosa; experiment: Antibacterial activity against Pseudomonas aeruginosa ATCC 27853 at 0.05 mg/ml by agar plate method
[15] = tested on: Mycobacterium tuberculosis; experiment: Antimycobacterial activity against Mycobacterium tuberculosis H37Rv at 0.004 mg/ml by rapid radiometric method
[16] = tested on: Enterobacter cloacae; experiment: Antibacterial activity against Enterobacter cloacae ATCC 13047 at 0.01 mg/ml by agar plate method
[17] = tested on: Enterococcus faecalis; experiment: Antibacterial activity against Streptococcus faecalis at 0.01 mg/ml by agar plate method
[18] = tested on: Klebsiella pneumoniae; experiment: Antibacterial activity against Klebsiella pneumoniae ATCC 10031 at 0.01 mg/ml by agar plate method

For `Cc1cc(O)c2c(c1)C(=O)C[C@H](c1c(C)cc3c(c1O)C(=O)CCC3O)[C@@H]2O` (stereo not given in full), the Activity [1] was “inactive”.
With `C=C(C)[C@@H]1CC[C@]2(C)CC[C@]3(C)[C@@H](CC[C@@H]4[C@@]5(C)CC[C@H](OC(=O)/C=C/c6ccc(OC)c(O)c6)C(C)(C)[C@@H]5CC[C@]43C)[C@H]12` the Activity [1] was “Active”.
`Cc1cc(O)c2c(c1)[C@H](O)CCC2=O` was tested, and the Activity [2] was “Active”, the Activity [3] was “Active” and the Activity [1] was “Active”. For the same compound, the Activity [4] was “Active” and the Activity [5] was “Active”.
With `CC[C@@H](CO)NCCN[C@@H](CC)CO` the Activity [6] was “Active”.
In the case of `CN[C@@H]1[C@H](O[C@H]2[C@H](O[C@H]3[C@H](O)[C@@H](O)[C@H](N=C(N)N)[C@@H](O)[C@@H]3N=C(N)N)O[C@@H](C)[C@]2(O)C=O)O[C@@H](CO)[C@H](O)[C@H]1O`, the Activity [7] is reported as “Active”, the Activity [8] is reported as “Active” and the Activity [9] is reported as “Active”. For the same compound, the Activity [10] was “Active”, the Activity [11] was “Active” and the Activity [12] was “Active”. The Activity [13] was “Active”, the Activity [14] was “Active” and the Activity [15] was “Active”. The Activity [16] was “Active”, the Activity [17] was “Active” and the Activity [18] was “Active”.
